Reference: PubChem BioAssay (NCI)
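1) Cells in 96-well plates. 2) Compound, 48 h, 5 concentrations. 3) Linear interpolation between surrounding doses. 4) Unreached endpoint = highest concentration. GI50: concentration for 50% inhibition of growth. TGI: concentration producing complete growth inhibition.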

Assays:
Test in all cases: NCI-60 cell line screen, 48 h
OVCAR-3 ovarian = test system: OVCAR-3 ovarian
786-0 renal = test system: 786-0 renal
SF-268 CNS = test system: SF-268 CNS
SF-295 CNS = test system: SF-295 CNS
CCRF-CEM leukemia = test system: CCRF-CEM leukemia
SK-MEL-28 melanoma = test system: SK-MEL-28 melanoma
SW-620 colon = test system: SW-620 colon
TK-10 renal = test system: TK-10 renal
MDA-MB-435 = test system: MDA-MB-435
SK-MEL-5 melanoma = test system: SK-MEL-5 melanoma

SMILES	GI50 (OVCAR-3 ovarian) [nM]	TGI (OVCAR-3 ovarian) [nM]	GI50 (786-0 renal) [nM]	TGI (786-0 renal) [nM]	GI50 (SF-268 CNS) [nM]	TGI (SF-268 CNS) [nM]	GI50 (SF-295 CNS) [nM]	TGI (SF-295 CNS) [nM]	GI50 (CCRF-CEM leukemia) [nM]	TGI (CCRF-CEM leukemia) [nM]	GI50 (SK-MEL-28 melanoma) [nM]	TGI (SK-MEL-28 melanoma) [nM]	GI50 (SW-620 colon) [nM]	TGI (SW-620 colon) [nM]	GI50 (TK-10 renal) [nM]	TGI (TK-10 renal) [nM]	GI50 (MDA-MB-435) [nM]	TGI (MDA-MB-435) [nM]	GI50 (SK-MEL-5 melanoma) [nM]	TGI (SK-MEL-5 melanoma) [nM]
COC(=O)c1ccc2c(c1)/C(=C\c1cc(Br)c(O)c(Br)c1)C(=O)N2	8140	> 25000	10100	> 25000	10100	> 25000	5100	> 24000	5980	> 25000	3960	> 25000	8400	> 25000	6790	> 23300	3100	> 19400	4480	> 16500
COC(=O)c1cc2c(s1)-c1nccc3c1c(nc1ccccc13)C2=O	16500	56200	> 100000	> 100000	29100	> 100000	> 100000	> 100000	> 100000	> 100000	> 100000	> 100000	61700	> 100000	> 100000	> 100000	17700	32000	33800	> 100000
C#Cc1nc(Nc2cc(C)[nH]n2)c2ccccc2n1	242	520	349	1130	313	1110	609	2260	248	1310	363	1710	327	1300	427	2910	213	563	139	280
CCOC(=O)/C=C/c1ccc(C#Cc2ccccc2)cc1	> 100000	> 100000	> 100000	> 100000	> 100000	> 100000	55100	> 100000	> 100000	> 100000	> 100000	> 100000	> 100000	> 100000	> 100000	> 100000	> 100000	> 100000	68500	> 100000
CCCCCCCN=C(N)c1ccc(N2CCN(c3ccc(C(N)=NCCCCCCC)cc3)CC2)cc1	162	517	596	> 100000	–	317	62.8	280	1100	> 100000	2080	> 22400	259	> 31700	146	1930	25.4	99.2	–	14.1
Cc1ccc(Nc2oc(-c3ccccc3)nc2[P+](c2ccccc2)(c2ccccc2)c2ccccc2)cc1	299	1000	1100	2450	1560	4900	1240	2600	547	4770	1190	2550	675	2050	1370	2930	606	1970	493	1400
